Source: article PMC5460289, “Identification of New Shikonin Derivatives as Antitumor Agents Targeting STAT3 SH2 Domain” (Scientific Reports, 2017)

Assays:
Assay type in all cases: cell-based, human
[1] = tested on: IL-6-induced STAT3 phosphorylation in MDA-MB-231 cells; assay: IL-6 induction of STAT3 phosphorylation (Western blot); conditions: 2 μM pretreatment 24 h, IL-6 (20 ng/mL) 30 min
Description: Figure 6 (A) PMM-172 suppressed constitutive pSTAT3 (Tyr705) in a dose-dependent manner. (B) PMM-172 suppressed constitutive pSTAT3 (Tyr705) in a time-dependent manner. (C) MDA-MB-231 cells were treated with IL-6 (20 ng/mL) or vehicle for 30 min, with or without pretreatment with PMM-172 (2 μM) for 24 h. PMM-172 inhibited IL-6 induced phosphorylation of STAT3. (D) Stattic suppressed constitutive pSTAT3 (Tyr705) in a dose-dependent manner. (E) Stattic suppressed constitutive pSTAT3 (Tyr705) in a time-dependent manner. (F) Tyrosine phosphorylation of two STAT family proteins STAT1 and STAT5 were detected with specific antibodies. […] Data were shown as mean ± SD of three independent experiments. *P < 0.05, **P < 0.01. Cropped blots/gels were used in the figure and the gels had been run under the same experimental conditions; the full-length blots/gels are presented in Supplementary Figure S2.
We further investigated whether PMM-172 could inhibit IL-6-induced STAT3 phosphorylation in MDA-MB-231 cells.
Cells were seeded in 10 cm plates and allowed to adhere overnight. The following day, the specimen was serum starved for 24 h. The specimen was then treated with or without tested agents at the dose of 2 μM. […] Cells were then harvested after 30 min and analyzed by Western blot.

MDA-MB-436 = assay: MTT anti-proliferation assay; conditions: Homo sapiens, MDA-MB-436, 24 h treatment
Description: (§1) Initial experiments were performed for evaluation of growth inhibition by the new compounds against six human breast cancer cell lines, including MCF-7 (ER+/PR+, HER-2-), BT474 (ER+/PR+, HER-2+), SKBR-3 (ER-/PR-/HER-2+), MDA-MB-436 (ER-/PR-/HER-2-), MDA-MB-231 (ER-/PR-/HER-2-), MDA-MB-468 (ER-/PR-/HER-2-) and non-tumorigenic MCF-10A cells. After 24 h treatment by the obtained compounds, the inhibition was assessed and the IC50 was summarized. […] Subsequently, the inhibition of STAT3 activation by PMM-172 and Stattic was evaluated using a dual-luciferase assay.
(§2) The anti-proliferative activities of the prepared compounds against MCF-7 (ER+/PR+, HER-2-), BT474 (ER+/PR+, HER-2+), SKBR-3 (ER-/PR-/HER-2+), MDA-MB-436 (ER-/PR-/HER-2-), MDA-MB-231 (ER-/PR-/HER-2-), MDA-MB-468 (ER-/PR-/HER-2-) and non-tumorigenic MCF-10A cell lines were evaluated using a standard (MTT)-based colorimetric assay with some modification. Cell lines were grown to log phase in DMEM supplemented with 10% fetal bovine serum. Cell suspensions were prepared and 100 μL/well dispensed into 96-well plates giving 10^4 cells/well. The subsequent incubation was permitted at 37 °C, 5% CO2 atmosphere for 24 h to allow the cells to reattach. Subsequently, cells were treated with the target compounds at increasing concentrations in the presence of 10% FBS for 24 h. Then, cell viability was assessed by the conventional 3-(4, 5-dimethylthiazol-2-yl)-2, 5-diphenyltetrazolium bromide (MTT) reduction assay and carried out strictly according to the manufacturer instructions. The absorbance (OD570) was read on an ELISA reader (Tecan, Austria). In all experiments, three replicate wells were used for each drug concentration. Each assay was carried out for at least three times.

MCF-7 = assay: MTT anti-proliferation assay; conditions: Homo sapiens, MCF7, 24 h treatment
Description: as §1, §2

MDA-MB-231 = assay: MTT anti-proliferation assay; conditions: Homo sapiens, MDA-MB-231, 24 h treatment
Description: as §1, §2

MDA-MB-468 = assay: MTT anti-proliferation assay; conditions: Homo sapiens, MDA-MB-468, 24 h treatment
Description: as §1, §2

BT-474 = assay: MTT anti-proliferation assay; conditions: Homo sapiens, BT-474, 24 h treatment
Description: as §1, §2

SKBR-3 = assay: MTT anti-proliferation assay; conditions: Homo sapiens, SK-BR-3, 24 h treatment
Description: as §1, §2

## COc1cc(OC)cc(-c2nnc(SCC(=O)O[C@H](CC=C(C)C)C3=CC(=O)c4c(O)ccc(O)c4C3=O)o2)c1 [PMM-172, (R)-1-(5,8-dihydroxy-1,4-dioxo-1,4-dihydronaphthalen-2-yl)-4-methylpent-3-en-1-yl 2-((5-(3,5-dimethoxyphenyl)-1,3,4-oxadiazol-2-yl)thio)acetate]
[1]
  IL-6-induced STAT3 phosphorylation: suppressed IL-6-induced STAT3 phosphorylation
MDA-MB-436
  IC50: 3.07 ± 0.47 µM
MCF-7
  IC50: 4.87 ± 0.55 µM
MDA-MB-231
  IC50: 1.98 ± 0.49 µM
MDA-MB-468
  IC50: 3.24 ± 0.27 µM
BT-474
  IC50: 5.26 ± 0.66 µM
SKBR-3
  IC50: 3.14 ± 0.46 µM
